Patent US10077269B2, “Imidazopyridazine compounds” (Pfizer Inc., priority 2014, dated 2018)

Target: Human PDE4D FL (Homo sapiens (Human), UniProt Q08499)
Assay: PDE4D3 Scintillation Proximity Assay (SPA), inhibition of enzyme activity
Format: biochemical
Settings: geometric mean of 2-9 determinations unless otherwise indicated; 1 μM cAMP, 30 min at 25° C.

Chain of Human PDE4D FL (Q08499 186-808): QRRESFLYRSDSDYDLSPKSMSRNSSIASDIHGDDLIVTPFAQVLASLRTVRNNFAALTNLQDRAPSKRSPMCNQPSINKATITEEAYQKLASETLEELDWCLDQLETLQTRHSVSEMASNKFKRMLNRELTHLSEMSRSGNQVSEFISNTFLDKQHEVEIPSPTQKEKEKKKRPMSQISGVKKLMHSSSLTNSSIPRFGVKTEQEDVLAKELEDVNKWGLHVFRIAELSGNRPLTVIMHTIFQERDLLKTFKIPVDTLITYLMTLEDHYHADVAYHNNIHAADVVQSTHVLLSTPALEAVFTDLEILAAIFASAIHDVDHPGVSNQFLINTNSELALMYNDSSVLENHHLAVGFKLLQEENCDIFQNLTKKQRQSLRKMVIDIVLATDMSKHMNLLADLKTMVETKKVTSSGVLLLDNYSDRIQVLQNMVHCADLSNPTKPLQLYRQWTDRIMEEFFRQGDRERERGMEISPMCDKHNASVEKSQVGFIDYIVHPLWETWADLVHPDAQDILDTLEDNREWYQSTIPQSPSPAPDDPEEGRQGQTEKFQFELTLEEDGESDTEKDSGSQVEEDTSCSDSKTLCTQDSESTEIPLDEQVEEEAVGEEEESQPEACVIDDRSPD

| IC50 [µM] | SMILES |
| --- | --- |
| > 26.2 | COC1CN(C(=O)c2nc3cccnn3c2-c2ccc(Cl)cc2)C1 [Example 31, [3-(4-chlorophenyl)imidazo[1,2-b]pyridazin-2-yl](3-methoxyazetidin-1-yl)methanone] |
| > 12.2 | O=C(NC1CC1)c1nc2cccnn2c1-c1ccnc(C(F)(F)F)c1 [Example 42, N-cyclopropyl-3-[2-(trifluoromethyl)pyridin-4-yl]imidazo[1,2-b]pyridazine-2-carboxamide] |
